According to patent US20220257620A1, “USE OF CERTAIN PHOSPHATIDYLCHOLINES CONTAINING LONG CHAIN POLYUNSATURATED FATTY ACIDS AS NEUROPROTECTIVE AGENTS” (KANNALIFE SCIENCES, INC., priority 2019, published 2022):

What was measured:
[1] = tested on: dissociated hippocampal cultures; assay: Cell death assay (propidium iodide), protection from 30 mM ethanol; type: cell-based, rat; details: Table 3, 5 hour test period, co-treatment with 30 mM ethanol; for IC50: read-out: Propidium Iodide (IC50 + SE)
[2] = tested on: dissociated hippocampal cultures (primary neurons); assay: Neuronal viability assay (CFDA), neuroprotection from 30 mM ethanol; type: cell-based, rat; details: Table 3, 5 hour test period, co-treatment with 30 mM ethanol; for EC50: read-out: CFDA (EC50 + SE)
Description: Pre-coated poly-D-lysine coated plates will be used because of the adherence and survival of hippocampal neurons and glia on this matrix support.
Carboxyfluorescein (CFDA) was used a vital stain for all neuroprotection studies. With the use of the CytoFluor fluorimeter, the CFDA assay was employed to assess the viability of neurons. […] Neuronal specificity is obtained relative to astrocytes because the cleaved dye is extruded extracellularlly by glia with time, while dye in neurons remains intracellular.

Molecule	IC50 [1] [nM]	EC50 [2] [nM]	Propidium Iodide (IC50 + SE) [1]	CFDA (EC50 + SE) [2]
CC/C=C\C/C=C\C/C=C\C/C=C\C/C=C\C/C=C\CCC(=O)OC[C@H](COP(=O)([O-])OCC[N+](C)(C)C)OC(=O)CC/C=C\C/C=C\C/C=C\C/C=C\C/C=C\C/C=C\CC [PC 22:6-22:6]	0.21 ± 0.053	0.283 ± 0.046	–	–
CCCCC/C=C\C/C=C\CCCCCCCC(=O)OCC(COP(=O)([O-])OCC[N+](C)(C)C)OC(=O)CCCCCCC/C=C\C/C=C\CCCCC (stereo not shown) [PC 18:2-18:2, 1,2-dilinoleoyl-phosphatidylcholine]	0.044 ± 0.015	0.067 ± 0.022	–	–
CCCCC/C=C\C/C=C\C/C=C\C/C=C\CCCC(=O)OC[C@H](COP(=O)([O-])OCC[N+](C)(C)C)OC(=O)CCC/C=C\C/C=C\C/C=C\C/C=C\CCCCC [PC 20:4-20:4, 1,2-diarachidonyl-phosphatidylcholine]	0.0012 ± 0.00012	0.001 ± 8e-05	–	–
CC/C=C\C/C=C\C/C=C\CCCCCCCC(=O)OC[C@H](COP(=O)([O-])OCC[N+](C)(C)C)OC(=O)CCCCCCC/C=C\C/C=C\C/C=C\CC [PC 18:3-18:3, 1,2-dilinolenoyl-phosphatidylcholine]	0.204 ± 0.088	0.202 ± 0.022	–	–
PC 16:0-18:2 [reference compound]	–	–	Inactive	Inactive
